Measured values reported in patent publication US20140024683A1, “CHLORIDE CHANNEL AND CHLORIDE TRANSPORTER MODULATORS FOR THERAPY IN SMOOTH MUSCLE DISEASES” (priority 2011, published 2014).
“And” between values parts separate entries of the source, which are not always exact repeats. Equal entries are not always repeated. Where two headings read alike, the source gives them in different places. Values belong to the molecule of their own block, whether it stands above or below them.

Assays:
[1] = tested on: human airway smooth muscle cells; assay: FLIPR membrane potentiometric dye assay (Example 21); format: cell-based
Protocol: Immortalized airway smooth muscle cell lines modified to stably express human telomerase reverse transcriptase were a kind gift from Dr. William Gerthoffer (University of Southern Alabama, Mobile, Ala.) prepared as described previously (Gosens et al., 2006) and grown in Dulbecco's Modified Eagle's Medium/F12 media (GIBCO, Grand Island, N.Y.), with 10% FBS and antibiotics.
Immortalized human airway smooth muscle cells were cultured on black-walled 96 well plates to 100% confluence, and were washed four times with warmed (37° C.) assay buffer of the following composition (in mM): NaCl 140, KCl 4.7, CaCl2 2.5, MgCl2 1.2, HEPES 11, D-glucose 10. A stock solution (100% dye) of FLIPR blue dye was prepared by reconstitution of 1 vial (125 mg) with 100 ml assay buffer. A 50% working stock was prepared by further diluting the reconstituted blue dye 1:1 with assay buffer and was used to load cells (90 μl/well) over 45 min at 37° C. in a humidified cell culture incubator (95% air/5% CO2). All reagents were dissolved in assay buffer. Fluorescence was measured with a Flex Station 3 (Molecular Devices) using an excitation wavelength of 530 nm, emission wavelength of 565 nm and a cutoff filter of 550 nm. Baseline fluorescence was measured every 2 seconds for 1 minute then for 2 minutes after injection of vehicle or compound of interest as indicated (using the Flexstation's 3 integrated injection capabilities).
Human airway smooth muscle cells were incubated with FLIPR membrane potentiometric dye to assess if the chloride channel blockers changed membrane potential at the cellular level. FLIPR fluorescence will increase with depolarization, and decrease with hyperpolarization. […] Therefore, chloride channel blockade, but not NKCC blockade, hyperpolarized human airway smooth muscle cells.

[2] = tested on: human airway smooth muscle cells; assay: Whole cell current clamp recording of membrane potential; format: cell-based
Protocol: Induced electrophysiological changes in membrane potential and current were measured using traditional whole cell patch clamp methods. Immortalized human airway smooth muscle cells were grown to confluence on collagen-treated T25 flasks. Collagenase type IV in SmBM2 medium (Lonza, Walkersville, Md.) was used to release cells adherent to the collagen matrix in the flask. Medium with cells in suspension was then harvested in a 10-ml conical tube and centrifuged at 300×g. Supernatant was removed, and the pellet was resuspended in SmBM2 medium and transferred into collagen-treated glass bottom 1-cm Petri dishes at about 10% confluence. Each dish was then incubated at 37° C. and 5% CO2 for 1-4 hours for reattachment of cells to glass-bottom Petri dishes.
Glass-bottom dishes served as a disposable recording chamber. ALA VM-8, an 8-chamber pressure-driven drug application system, was used in a still bath of extracellular salt solution. Whole-cell intracellular voltage recordings under current clamp conditions were performed with a 2-kHz Bessel filter, recording at 10 kHz using an Axopatch 200b amplifier (Axon Instruments, Foster City, Calif., USA). Electrodes were pulled using a P-97 micropipette puller from 1.5-mm OD borosilicate capillary glass (Sutter Instruments, Novato, Calif., USA). Glass electrode resistances ranged from 5 to 10 MO with intracellular solution. Whole-cell intracellular current recordings under voltage-clamp conditions were performed with a 2-kHz Bessel filter, recording at 10 kHz using an Axopatch 200b amplifier. For current measurements (FIG. 11) intracellular solutions consisted of (in mM) 140 TEA-Cl, 5 MgATP, 5 EGTA, 1 MgCl2, 10 HEPES, and 5 CaCl2 (pH 7.2). Extracellular solution consisted of (in mM) 134 NaCl, 1.4 KCl, 10 HEPES, 1 MgCl2, 1.8 CaCl2, and 10 glucose (pH 7.4). This induced the classic spontaneously transient inward currents (STICs) and spontaneously transient outward currents (STOCs) well described in this cell type. STOCs are believed to represent activation of calcium activated potassium (KCa) channels while STICs are believed to represent activation of CaCCs. TEA-Cl was included in the buffer to enhance STICs which were then recorded during the addition of 100 μM niflumic acid. When recording TEA- and niflumic acid-induced responses on membrane potential (ΔmV), the intracellular solutions contained (in mM) 140 KCl, 5 MgATP, 5 EGTA, 1 MgCl2, 10 HEPES, and 5 CaCl2 (pH 7.2), and the extracellular solutions consisted of (in mM) 134 NaCl, 5 MgATP, 5 EGTA, 1 MgCl2, 10 HEPES, and 5 CaCl2 (pH 7.2). All recordings were analyzed on Clampfit 8.0 software (Molecular Devices).

[3] = tested on: human airway smooth muscle cells; format: cell-based
Protocol: This buffer was exchanged at 100 μl/well just before starting the measurement of fluorescence. […] In separate experiments the effect of extracellular chloride concentrations on SOCE was measured by the predepletion of extracellular calcium in low or high chloride buffer (55 mM versus 110 mM NaCl, osmotically balanced with Na gluconate) in the presence of thapsigargin to deplete intracellular calcium stores. Calcium induced fluorescence changes were measured with the reintroduction of 2 mM extracellular CaCl2.

[4] = tested on: human airway smooth muscle; assay: Relaxation of acetylcholine contraction in human airway smooth muscle strips; conditions: 100 μM alone; EC50 acetylcholine
Protocol: Studies using de-identified human tissue were reviewed by the Columbia University Institutional Review Board and deemed not human subjects research. Tissues were obtained from healthy, normal organ donor discarded surgical waste subsequent to lung transplant surgery. Tissues were collected after transplant and placed in DMEM media (GIBCO) and bubbled overnight in 5% carbon dioxide and 95% oxygen at 4° C. The following morning, the smooth muscle tissue was carefully dissected under a dissecting microscope and the epithelium removed. The strips were anchored in the organ bath as described above using KH buffer of the same composition. The strips were allowed to equilibrate for 1 hour with buffer exchanges every 15 minutes and were treated with 10^−6 M tetrodotoxin, 10^−5 M pyrilamine, and 10^−5
M MK571. Strips were contracted with an EC50 dose of acetylcholine (Ach)
This experiment was then repeated with human airway smooth muscle to investigate clinical relevance as a model of bronchospasm in humans.

[5] = tested on: guinea pig tracheal rings; assay: Relaxation of TEA contraction in guinea pig tracheal rings (Example 16, library screen); conditions: 10 mM TEA
Protocol: (§1) Animal protocols were approved by the Columbia University Animal Care and Use Committee. Male Hartley guinea pigs weighing approximately 400 g were anesthetized with intraperitoneal injection of sodium pentobarbital (100 mg/kg). Trachea were removed and transferred to ice cold Krebs-Henseleit (KH) buffer of the following composition (in mM): NaCl 118, KCl 5.6, CaCl2 0.5, MgSO4 0.24, NaH2PO4 1.3, NaHCO3 25, glucose 5.6, pH 7.4. Epithelial-denuded tracheal rings were prepared using a dissecting microscope. Epithelium was removed by gently passing cotton fibers through the lumen of the tracheal rings. The rings were suspended in 4 mL-water jacketed organ baths (37° C.: Radnoti Glass Technology, Monrovia, Calif.) and connected to a Grass FT03 force transducer (Grass Telefactor, West Warwick, R.I.) using silk sutures. The transducers were coupled to the computer with BioPac hardware and data was collected using Acqknowledge 7.3.3 software (BioPac Systems, Goleta, Calif.). KH buffer was bubbled with a gas mixture of 95% oxygen and 5% carbon dioxide and buffer was exchanged every 15 minutes for 1 hour during equilibration of tracheal rings at 1 g resting tension. […].

[6] = tested on: Ca^2+-activated chloride channel; assay: Patch-clamp analysis of spontaneous transient inward currents (STICs)
[7] = tested on: guinea pig tracheal rings; assay: Relaxation of potassium gluconate contraction in guinea pig tracheal rings; conditions: 100 μM; 80 mM potassium gluconate
Protocol: as §1
Many chloride channel blockers are known to also stimulate potassium channels (Greenwood et al., 2007). Thus, we performed additional studies in the presence of a large extracellular concentration of potassium to ensure that our findings of compound 1 or 13 inhibiting a TEA-induced depolarizing contraction were not due to these compounds opening a potassium channel.

[8] = tested on: guinea pig tracheal rings; assay: Relaxation of the maintenance phase of a pre-established acetylcholine contraction, guinea pig tracheal rings; conditions: 100 μM alone; pre-contracted with EC50 acetylcholine
Protocol: as §1
Chloride channel blockers were then tested against the plateau phase of an established acetylcholine contraction. […]

[9] = tested on: guinea pig tracheal rings; assay: Potentiation of isoproterenol relaxation of acetylcholine contraction, guinea pig tracheal rings; conditions: 50 μM compound 13
Protocol: as §1
Therefore, we tested whether the chloride channel blockers or modulation of chloride flux could be used in combination with β-agonists to potentiate their effects. […]. Therefore, a combination of treatment with compound 13 and bumetanide potentiated the relaxation effect of isoproterenol.

RhoA = conditions: 10 mM TEA-acetate, 2 minutes
Protocol: FIG. 8 is a bar graph showing RhoA activation in human airway smooth muscle cells.
Measurement of activated rhoA in cultured human airway smooth muscle cells were conducted as follows. […] Reaction was stopped by solubilizing cells in buffer. Following clearance of non-solubilized cell material, the solubilized cells were reacted with Rhotekin bound to beads, which isolated activated RhoA from total RhoA. Fractions were then analyzed on a commercially available ELISA plate that quantitates activated versus total RhoA (Cytoskeleton, Inc.)

rat lung slices = assay: Airway lumen area in peripheral small airways of rat lung slices; conditions: contractile agonists
Protocol: The measurement of airway contraction of a luminal area of small lung airways using the ex vivo rat lung slice method was performed as described (Perez-Zoghbi et al., 2007). The trachea was cannulated with an intravenous catheter, and after the chest cavity was opened, the collapsed lungs were reinflated with 1.3±0.1 ml of 2% agarose (low-gelling temperature) in Sigma-Hanks' Balanced Salt solution (sHBSS), followed by the injection of 0.2±0.1 of air to flush the agarose-sHBSS out of the airways and into the distal alveolar space. Subsequently, a warm (37° C.) solution of gelatin (type A, porcine skin, 300 bloom, 6% in sHBSS) was perfused through the intrapulmonary blood vessels via the pulmonary artery by injecting about 0.3 ml into the right ventricle. The warm agar and gelatin were gelled with cold sHBSS. A single lung lobe was removed and cut into serial sections of about 130 μm thick with a vibratome at about 4° C., starting at the lung periphery. Slices were maintained in DMEM (Invitrogen) at 37° C. and 10% CO2 for up to 3 days. At 37° C., the gelatin in the blood vessel lumen dissolved, leaving the blood vessel lumen empty. Lung slices were mounted in a custom-made perfusion chamber and held in place with a small sheet of nylon mesh. A second cover glass edged with silicone grease was placed over the lung slice. Perfusion of the lung slice was performed using a gravity-fed perfusion system. The volume of the chamber was about 100 μl with a perfusion rate of about 800 μl/min. […] Digital images were recorded in time lapse (30 frames/min). The area of the bronchiole and arteriole lumen was calculated, from each image, by pixel summing using custom-written software. Experiments were performed at room temperature.

[10] = tested on: guinea pig tracheal rings; assay: Ex vivo airway smooth muscle force, prevention or relaxation of a contraction (Example 5); conditions: solo therapy; vs vehicle
Protocol: The chloride channel blocker NPPB and the chloride transporter blocker bumetanide were evaluated for their ability to prevent an initial contraction (n=5) (FIG. 23A) or to relax an existing contraction (n=6) (FIG. 23B).
As a proof of concept for chloride channel blockade in general, another chloride channel blocker, 5-nitro-2-(3-phenylpropylamino)-benzoic acid (NPPB) was used in an ex vivo guinea pig airway smooth muscle model.

[11] = 10 μM compound 13 and bradykinin, n=5
[12] = 10 μM compound 13 plus 30 μM bradykinin, n=5
[13] = compound 13 under basal conditions, n=9

SMILES: O=C([O-])[C@H](O)[C@@H](O)[C@H](O)[C@H](O)CO.[K+] [K gluconate, potassium gluconate]
membrane potential, continuous fluorescence recording (representative tracing) [1]: depolarizes
membrane potential (current clamp, whole cell) ([2]; 60-75 mM potassium (K)-gluconate): depolarized the cell
intracellular calcium (fluo4-AM fluorescence) [3]: increased calcium

shift of the EC50 of isoproterenol [9]: 2.2 fold
SMILES: O=C(O)c1cc(Cl)ccc1NCc1cccc2ccccc12 [compound 13, 5-chloro-2-(1-naphthylmethylamino)benzoic acid]
change in relative fluorescent units (membrane potential, FLIPR) ([1]; 100 μM, n=12): −264.2+/−40 RFU
relaxation of acetylcholine contraction [4]: 52.5%±8.1
percent of the TEA-induced contraction remaining at 15 minutes ([5]; 100 μM): 61.0±10.1%
relaxed fraction of a TEA-induced contraction at 15 minutes after drug addition ([5]; 100 μM): 39.0%
relaxation of TEA-induced contraction (screen of 20-compound chloride channel blocker library) [5]: most potently relax
amplitude of STICs ([6]; 10 μM compound 13 alone, n=9): 0.44±0.09 fold change with control normalized to 1
frequency of STICs ([6]; 10 μM compound 13 alone, n=9): 0.4±0.1 fold change with control normalized to 1
amplitude of STICs compared to control [6, 11]: 46%
frequency of STICs compared to control [6, 11]: 40%
amplitude of STICs [6, 12]: 0.46±0.13 fold change with control normalized to 1
frequency of STICs [6, 12]: 0.4±0.14 fold change with control normalized to 1
amplitude of STICs [6, 13]: 44 % of control
frequency of STICs [6, 13]: 40 % of control
percent of potassium gluconate-induced contraction at 30 minutes [7]: 68.17%±4.9 and 68.2%±4.9
relaxation of established acetylcholine contraction [8]: 60.1%±5.7

SMILES: CC[N+](CC)(CC)CC.[Cl-] [TEA, tetraethylammonium chloride]
membrane potential (current clamp, whole cell) ([2]; 10 mM TEA-Cl): depolarized the cell
RhoA activation (RhoA): activates rhoA
percent decrease in lumen area compared to rest (rat lung slices): significant decrease in lumen area
intracellular calcium (fluo4-AM fluorescence) ([3]; 10 mM TEA): does not increase intracellular Ca^2+

SMILES: O=C(O)c1cc([N+](=O)[O-])ccc1NCCCc1ccccc1 [NPPB, 5-nitro-2-(3-phenylpropylamino)-benzoic acid]
percent of potassium gluconate-induced contraction at 30 minutes [7]: 56.71%±10.6 and 56.7%±10.6
relaxation of an existing contraction [10]: effective in relaxing an existing contraction
